Laboratory results: the supplement of paper PMC10307832

How the values were obtained:
Assay in all cases: relative viability (nuclei count vs DMSO), 5 days (fraction); higher = more cells survive
Afatinib + Pemetrexed = compound: CN(C)C/C=C/C(=O)Nc1cc2c(Nc3ccc(F)c(Cl)c3)ncnc2cc1O[C@H]1CCOC1 [Afatinib] + Nc1nc2[nH]cc(CCc3ccc(C(=O)N[C@@H](CCC(=O)O)C(=O)O)cc3)c2c(=O)[nH]1 [Pemetrexed] (partner 0.2 µM)
How it was run: (§1)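 Dosing by pin tool came one day after lung cancer cell lines were seeded in 1536-well plates, using either one drug or a fixed anchor-drug dose plus five library-drug doses (not always all listed) in √10 steps. After 5 days, nuclei were counted on 4× images. Relative viability is treated-well nuclei count divided by vehicle-well nuclei count, and values are medians of duplicate plates.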

Afatinib + Vorinostat = compound: CN(C)C/C=C/C(=O)Nc1cc2c(Nc3ccc(F)c(Cl)c3)ncnc2cc1O[C@H]1CCOC1 [Afatinib] + O=C(CCCCCCC(=O)Nc1ccccc1)NO [Vorinostat] (partner 1 µM)
How it was run: as §1

Afatinib + Navitoclax = compound: CN(C)C/C=C/C(=O)Nc1cc2c(Nc3ccc(F)c(Cl)c3)ncnc2cc1O[C@H]1CCOC1 [Afatinib] + CC1(C)CCC(c2ccc(Cl)cc2)=C(CN2CCN(c3ccc(C(=O)NS(=O)(=O)c4ccc(N[C@H](CCN5CCOCC5)CSc5ccccc5)c(S(=O)(=O)C(F)(F)F)c4)cc3)CC2)C1 [Navitoclax] (partner 0.5 µM)
How it was run: as §1

Afatinib + Linsitinib = compound: CN(C)C/C=C/C(=O)Nc1cc2c(Nc3ccc(F)c(Cl)c3)ncnc2cc1O[C@H]1CCOC1 [Afatinib] + C[C@]1(O)C[C@@H](c2nc(-c3ccc4ccc(-c5ccccc5)nc4c3)c3c(N)nccn32)C1 [Linsitinib] (partner 1 µM)
How it was run: as §1

Cell Line | relative viability (Afatinib + Pemetrexed; first compound 0.005 µM) | relative viability (Afatinib + Pemetrexed; first compound 0.01581 µM) | relative viability (Afatinib + Pemetrexed; first compound 0.05 µM) | relative viability (Afatinib + Pemetrexed; first compound 0.1581 µM) | relative viability (Afatinib + Pemetrexed; first compound 0.5 µM) | relative viability (Afatinib + Vorinostat; first compound 0.005 µM) | relative viability (Afatinib + Vorinostat; first compound 0.01581 µM) | relative viability (Afatinib + Vorinostat; first compound 0.05 µM) | relative viability (Afatinib + Vorinostat; first compound 0.1581 µM) | relative viability (Afatinib + Vorinostat; first compound 0.5 µM) | relative viability (Afatinib + Navitoclax; first compound 0.005 µM) | relative viability (Afatinib + Navitoclax; first compound 0.01581 µM) | relative viability (Afatinib + Navitoclax; first compound 0.05 µM) | relative viability (Afatinib + Navitoclax; first compound 0.1581 µM) | relative viability (Afatinib + Navitoclax; first compound 0.5 µM) | relative viability (Afatinib + Linsitinib; first compound 0.005 µM) | relative viability (Afatinib + Linsitinib; first compound 0.01581 µM) | relative viability (Afatinib + Linsitinib; first compound 0.05 µM) | relative viability (Afatinib + Linsitinib; first compound 0.1581 µM) | relative viability (Afatinib + Linsitinib; first compound 0.5 µM)
201T | 0.294 | 0.353 | 0.379 | 0.38 | 0.31 | 0.936 | 0.902 | 0.922 | 0.783 | 0.957 | 1.18 | 1.2 | 1.21 | 1.15 | 1.23 | 1.06 | 0.986 | 0.909 | 0.86 | 0.897
A-427 | 1.05 | 1.03 | 1.05 | 0.969 | 0.983 | 0.929 | 0.89 | 0.848 | 0.833 | 0.908 | 1.01 | 0.997 | 1.05 | 0.965 | 0.992 | 1.1 | 1.15 | 1.11 | 1.08 | 1.07
ABC-1 | – | – | – | – | – | 1.47 | – | 1.13 | 1.24 | 1.08 | – | – | – | – | – | 0.851 | 0.647 | 0.788 | 0.466 | 0.584
BEN | 0.801 | 0.785 | 0.753 | 0.772 | 0.819 | 0.588 | 0.564 | 0.559 | 0.557 | 0.574 | 0.0693 | 0.0755 | 0.16 | 0.0734 | 0.0635 | 0.988 | 0.875 | 1.01 | 0.895 | 0.962
CAL-12T | 1.22 | 0.928 | 1.46 | 0.491 | 0.855 | 0.727 | 0.647 | 0.552 | 0.364 | 0.396 | 1.32 | 1.12 | 1.47 | – | 0.648 | 0.732 | 0.584 | 0.65 | 0.409 | 0.399
COR-L23 | 0.22 | 0.201 | 0.214 | 0.201 | 0.192 | 0.682 | 0.443 | 0.484 | 0.39 | 0.485 | 1.14 | 0.982 | 0.948 | 0.997 | 1.03 | 0.874 | 0.894 | 0.883 | 0.825 | 0.848
COR-L 105 | 0.837 | 0.503 | 0.542 | 0.353 | 0.377 | 0.667 | 0.386 | 0.47 | 0.336 | 0.386 | 0.444 | 0.373 | 0.315 | 0.293 | 0.26 | 0.418 | 0.207 | 0.403 | 0.258 | 0.278
Calu-6 | – | – | – | – | – | – | – | – | – | – | 0.836 | 0.786 | 0.831 | 0.914 | 0.81 | 0.858 | 0.876 | 1.06 | 0.933 | 0.891
ChaGo-K-1 | 0.246 | 0.262 | 0.268 | 0.257 | 0.247 | 0.81 | 0.777 | 0.789 | 0.754 | 0.695 | 1.12 | 0.707 | 0.979 | 0.826 | 1.05 | – | – | – | – | –
EKVX | 0.318 | 0.271 | 0.254 | 0.187 | 0.185 | 0.588 | 0.385 | 0.284 | 0.31 | 0.276 | 0.655 | 0.46 | 0.349 | 0.26 | 0.197 | 0.702 | 0.768 | 0.421 | 0.171 | 0.134
EMC-BAC-2 | 0.441 | 0.496 | 0.462 | 0.523 | 0.511 | 0.558 | 0.236 | 0.596 | 0.465 | 0.438 | 1.09 | 1.1 | 1.02 | 0.895 | 0.906 | 0.747 | 0.684 | 0.697 | 0.59 | 0.572
EPLC-272H | 0.349 | 0.381 | 0.301 | 0.285 | 0.318 | 0.402 | 0.387 | 0.347 | 0.448 | 0.273 | 1.21 | 0.944 | 0.911 | 0.742 | 0.868 | 1.14 | 0.926 | 0.832 | 0.776 | 0.736
H3255 | 0.365 | 0.313 | 0.306 | 0.307 | 0.273 | 0.277 | 0.207 | 0.229 | 0.185 | 0.952 | 0.101 | 0.0707 | 0.086 | 0.0584 | 0.076 | 0.197 | 0.124 | 0.149 | 0.123 | 0.138
HARA | 0.21 | – | 0.185 | 0.217 | 0.225 | 0.586 | 0.543 | – | 0.458 | 0.58 | 1.17 | 1.12 | 1.06 | 0.677 | 0.866 | 0.481 | 0.803 | 0.238 | 0.209 | 0.26
HCC-15 | 0.226 | 0.222 | – | 0.207 | 0.234 | 0.904 | 0.92 | 0.816 | 0.785 | 0.887 | 0.682 | 0.719 | 0.745 | 0.684 | 0.686 | 0.845 | 0.894 | 0.849 | 0.854 | 0.788
HCC-44 | 0.654 | 0.645 | 0.733 | 0.657 | 0.661 | 1.18 | 1.09 | 1.18 | 1.1 | 1.05 | 1.01 | 1.01 | 1.02 | 0.899 | 1.13 | 0.63 | 0.659 | 0.702 | 0.593 | 0.669
HCC-78 | 0.924 | 0.869 | 0.904 | 0.915 | 0.902 | 0.433 | 0.404 | 0.422 | 0.345 | 0.376 | 0.776 | 0.76 | 0.62 | 0.636 | 0.679 | 0.53 | 0.482 | 0.436 | 0.413 | 0.395
